Test results published in US20240287124A1, “PRODRUGS OF 4'-SUBSTITUTED NUCLEOSIDE REVERSE TRANSCRIPTASE INHIBITORS” (Merck Sharp & Dohme LLC, priority 2023, published 2024).

tested on: HIV-1 wild-type (R8) virus; experiment: Viral KINetics in Green cells (VIKING) assay, HIV-1 replication in MT4-GFP reporter cells; format: cell-based; conditions: Human immunodeficiency virus 1, 10% normal human serum, MT4-GFP cells, HIV-1 wild-type (R8); read-out: Viking (10% NHS), IC50
Description: Antiviral potency of the compounds was determined based on their ability to block HIV-1 replication in a GFP reporter cell line; this assay is referred to as Viral KINetics in Green cells or VIKING assay. HIV-1 replication was monitored using MT4-gag-GFP clone D3 (hereafter designate MT4-GFP) cells, which are MT4 cells modified to harbor a GFP reporter gene, the expression of which is dependent on the HIV-1 proteins tat and rev. (MT4 is a human T-cell line that is particularly sensitive to HIV-1 replication.) HIV-1 infection of MT4-GFP cells results in GFP expression approximately 24 h post-infection. MT4-GFP cells were maintained at 37° C./5% CO2/90% relative humidity in RPMI 1640 supplemented with 10% fetal bovine serum, 100 U/mL penicillin/streptomycin, and […] G418 to maintain the reporter gene. For infections, MT4-GFP cells were placed in the same medium lacking G418 and infected overnight with HIV-1 wild-type (R8) virus at an approximate multiplicity of infection of 0.01 in the same incubation conditions. Cells were then washed and resuspended in RPMI 1640 containing 10% normal human serum at 2×10^5 cells/mL. Compound plates were prepared by dispensing compounds dissolved in DMSO into wells of 384-well poly D lysine-coated plates (0.2 μl/well) using an ECHO acoustic dispenser. Each compound was tested in a 10-point serial 3-fold dilution (typical final concentrations: 4 μM-0.2 nM). Controls included no inhibitor (DMSO only) and a combination of three antiviral agents as a positive control (efavirenz, indinavir, and an integrase strand transfer inhibitor at final concentrations of 4 μM each). Infected cells were added (50 μL/well) to compound plates and were maintained at 37° C./5% CO2/90% relative humidity. Infected cells were quantified at two time points, approximately 48 h and 72 h post-infection, by counting the number of green cells in each well using an Acumen eX3 scanner. The increase in the number of green cells over ˜24 h period gives the reproductive ratio, R, which is calculated by dividing the number of green cells at 72 h over those at 48 h post-infection. The percent inhibition caused by a test compound is calculated using the following formula: […]
The dose-response curves of each test compound were plotted as % inhibition versus the compound concentration. IC50 values were determined by non-linear 4-parameter fitting of the dose-response curves.

Structure (SMILES) | IC50 [nM]
C#C[C@]1(COC(=O)OCc2ccc[nH]c2=O)O[C@@H](n2ccc3c(N)nc(Cl)nc32)C[C@@H]1OC(=O)OCc1ccccc1 [Example 94] | 6.1
C#C[C@]1(CO)O[C@@H](n2ccc3c(NC(=O)OCCCCC[C@@H]4SC[C@@H]5NC(=O)N[C@@H]54)nc(Cl)nc32)C[C@@H]1O [Example 151] | 17
C#C[C@]1(CO)O[C@@H](n2ccc3c(N(C(=O)CCC45CC6CC(CC(C6)C4)C5)C(=O)CCC45CC6CC(CC(C6)C4)C5)nc(Cl)nc32)C[C@@H]1O [Example 217] | > 4030
C#C[C@]1(COC(=O)OCCCc2ccccc2)O[C@@H](n2ccc3c(N)nc(Cl)nc32)C[C@@H]1O [Example 128] | 3
C#C[C@]1(COC(=O)OCc2ccccc2)O[C@@H](n2ccc3c(N)nc(Cl)nc32)C[C@@H]1OC(=O)CCCCCCC [Example 211] | 4
C#C[C@]1(CO)O[C@@H](n2ccc3c(N)nc(Cl)nc32)C[C@@H]1OC(=O)OCc1ccn(C)c(=O)c1 [Example 158] | 11
C#C[C@]1(COCOC(=O)Oc2ccccc2)O[C@@H](n2ccc3c(N)nc(Cl)nc32)C[C@@H]1O [Example 135] | 3.8
C#C[C@]1(COC(=O)OCc2cc[nH]c(=O)c2)O[C@@H](n2ccc3c(N)nc(Cl)nc32)C[C@@H]1O [Example 130] | 2.9
C#C[C@]1(CO)O[C@@H](n2ccc3c(NC(=O)OCCC45CC6CC(CC(C6)C4)C5)nc(Cl)nc32)C[C@@H]1O [Example 148] | 339
C#C[C@]1(COC(=O)OCc2cccn(C)c2=O)O[C@@H](n2ccc3c(N)nc(Cl)nc32)C[C@@H]1O [Example 208] | 4.4
C#C[C@]1(COC(=O)CCCC[C@@H]2SC[C@@H]3NC(=O)N[C@@H]32)O[C@@H](n2ccc3c(N)nc(Cl)nc32)C[C@@H]1OC(=O)OCC [Example 196] | 27
C#C[C@]1(COC(=O)OCc2cccnc2)O[C@@H](n2ccc3c(N)nc(Cl)nc32)C[C@@H]1OC(=O)OCc1cccnc1 [Example 164] | 13
C#C[C@]1(COC(=O)OCCCCCCCCCC)O[C@@H](n2ccc3c(N)nc(Cl)nc32)C[C@@H]1OC(=O)OCCCCCCCCCC [Example 92] | 3510
C#C[C@]1(CO)O[C@@H](n2ccc3c(N)nc(Cl)nc32)C[C@@H]1OC(=O)OCc1cccn(C)c1=O [Example 67, (2R,3S,5R)-5-(4-amino-2-chloro-7H-pyrrolo[2,3-d]pyrimidin-7-yl)-2-ethynyl-2-(hydroxymethyl)tetrahydrofuran-3-yl ((1-methyl-2-oxo-1,2-dihydropyridin-3-yl)methyl) carbonate] | 6.4
C#C[C@]1(COC(=O)CCCC)O[C@@H](n2ccc3c(N)nc(Cl)nc32)C[C@@H]1OC(C)=O [Example 186] | 25
C#C[C@]1(CO)O[C@@H](n2ccc3c(N(C(=O)OCCCCCC)C(=O)OCCCCCC)nc(Cl)nc32)C[C@@H]1O [Example 222] | 1370
C#C[C@]1(COC(=O)OCc2cccnc2)O[C@@H](n2ccc3c(N)nc(Cl)nc32)C[C@@H]1OC(=O)OCc1ccccc1 [Example 85] | 3.2
C#C[C@]1(COC(=O)CCCC)O[C@@H](n2ccc3c(N)nc(Cl)nc32)C[C@@H]1OC(=O)CC [Example 187] | 27
C#C[C@]1(COC(=O)OCc2cccn(C)c2=O)O[C@@H](n2ccc3c(N)nc(Cl)nc32)C[C@@H]1OC(=O)OCc1ccccc1 [Example 93] | 7.8
C#C[C@]1(COC(=O)CC(C)(C)c2c(C)cc(C)cc2OC(C)=O)O[C@@H](n2ccc3c(N)nc(Cl)nc32)C[C@@H]1O [Example 183] | 2.7
C#C[C@]1(CO)O[C@@H](n2ccc3c(N)nc(Cl)nc32)C[C@@H]1OCOC(=O)C(C)C [Example 140] | 5

Structure (SMILES) | IC50 [nM]
C#C[C@]1(COC(=O)CCCCCCCCCCCCCCCCCCC)O[C@@H](n2ccc3c(N)nc(Cl)nc32)C[C@@H]1O [Example 91] | 135
C#C[C@]1(CO)O[C@@H](n2ccc3c(N(C(=O)OCCCCCCCCCC)C(=O)OCCCCCCCCCC)nc(Cl)nc32)C[C@@H]1O [Example 220] | 615
C#C[C@]1(COC(=O)OCc2ccccc2)O[C@@H](n2ccc3c(N)nc(Cl)nc32)C[C@@H]1OC(=O)CCCC[C@@H]1SC[C@@H]2NC(=O)N[C@@H]21 [Example 195] | 40
C#C[C@]1(COC(=O)OCc2cccnc2)O[C@@H](n2ccc3c(N)nc(Cl)nc32)C[C@@H]1OC(=O)OCC [Example 172] | 25
C#C[C@]1(COC(=O)Cc2ccc(Cl)cc2)O[C@@H](n2ccc3c(NC(=O)CCc4ccccc4)nc(Cl)nc32)C[C@@H]1O [Example 147] | 55
C#C[C@]1(CO)O[C@@H](n2ccc3c(N)nc(Cl)nc32)C[C@@H]1OCOC(=O)c1ccccc1 [Example 139] | 3.6
C#C[C@]1(CO)O[C@@H](n2ccc3c(NC(=O)CCC45CC6CC(CC(C6)C4)C5)nc(Cl)nc32)C[C@@H]1O [Example 69, 3-(adamantan-1-yl)-N-(2-chloro-7-((2R,4S,5R)-5-ethynyl-4-hydroxy-5-(hydroxymethyl)tetrahydrofuran-2-yl)-7H-pyrrolo[2,3-d]pyrimidin-4-yl)propanamide] | 10
C#C[C@]1(COC(=O)CCCCC)O[C@@H](n2ccc3c(N)nc(Cl)nc32)C[C@@H]1OC(=O)CCCC[C@@H]1SC[C@@H]2NC(=O)N[C@@H]21 [Example 191] | 20
C#C[C@]1(CO)O[C@@H](n2ccc3c(N)nc(Cl)nc32)C[C@@H]1OC(=O)OC [Example 157] | 20
C#C[C@]1(CO)O[C@@H](n2ccc3c(NC(=O)OCCc4ccccc4)nc(Cl)nc32)C[C@@H]1O [Example 149] | 429
C#C[C@]1(COC(=O)OCCCCC[C@@H]2SC[C@@H]3NC(=O)N[C@@H]32)O[C@@H](n2ccc3c(N)nc(Cl)nc32)C[C@@H]1O [Example 132] | 3
C#C[C@]1(COC(=O)OCc2ccc[nH]c2=O)O[C@@H](n2ccc3c(N)nc(Cl)nc32)C[C@@H]1OC(=O)OCc1ccc[nH]c1=O [Example 205] | 4
C#C[C@]1(CO)O[C@@H](n2ccc3c(N)nc(Cl)nc32)C[C@@H]1OC(=O)OCCC12CC(C1)C2 [Example 111] | 5.2
C#C[C@]1(COC(=O)OCc2ccn(C)c(=O)c2)O[C@@H](n2ccc3c(N)nc(Cl)nc32)C[C@@H]1OC(=O)OCc1ccccc1 [Example 162] | 8.9
C#C[C@]1(CO)O[C@@H](n2ccc3c(N(C(=O)OCCCCCCCCCCCC)C(=O)OCCCCCCCCCCCC)nc(Cl)nc32)C[C@@H]1O [Example 218] | > 4030
C#C[C@]1(COC(=O)OCc2cccn(C)c2=O)O[C@@H](n2ccc3c(N)nc(Cl)nc32)C[C@@H]1OC(=O)OCc1cccn(C)c1=O [Example 206] | 3.4
C#C[C@]1(CO)O[C@@H](n2ccc3c(N)nc(Cl)nc32)C[C@@H]1OC(=O)OCc1cc[nH]c(=O)c1 [Example 159] | 14
C#C[C@]1(CO)O[C@@H](n2ccc3c(NC(=O)CCCc4ccccc4)nc(Cl)nc32)C[C@@H]1O [Example 198] | 63
C#C[C@]1(COC(=O)OCCCCC[C@@H]2SC[C@@H]3NC(=O)N[C@@H]32)O[C@@H](n2ccc3c(NC(=O)CCc4ccccc4)nc(Cl)nc32)C[C@@H]1O [Example 204] | 123
C#C[C@]1(COC(=O)CC23CC(C2)C3)O[C@@H](n2ccc3c(N)nc(Cl)nc32)C[C@@H]1OC(=O)CC12CC(C1)C2 [Example 95] | 8.6
